Measured values from the supplement of paper PMC10307832.

Columns and labels:
Test in all cases: relative viability (nuclei count vs DMSO), 5 days (fraction); higher = more cells survive
[1] = compound: CC1=NN=C(O1)C2=NN=C(C=C2)N3CCC(CC3)OC4=C(C=CC(=C4)F)Cl + CS(=O)(=O)CCNCc1ccc(-c2ccc3ncnc(Nc4ccc(OCc5cccc(F)c5)c(Cl)c4)c3c2)o1 [Lapatinib] (partner 2 µM)
Outline: (§1)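 Relative viability was taken as the ratio of nuclei in treated wells to nuclei in vehicle wells. Lung cancer cell lines in 1536-well plates received compounds by pin tool one day after seeding, either one drug alone or a fixed anchor-drug dose plus five library-drug doses (not always all listed) in √10 steps. Nuclei were counted on 4× images after 5 days of treatment, and values are medians of duplicate plates.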

[2] = compound: CC(C)C[C@@H](C(=O)N[C@H](C(=O)OC1CCCC1)c1ccccc1)[C@H](O)C(=O)NO [Tosedostat] + COc1cc2c(Oc3ccc(NC(=O)C4(C(=O)Nc5ccc(F)cc5)CC4)cc3F)ccnc2cc1OCCCN1CCOCC1 [Foretinib] (partner 0.25 µM)
Outline: as §1

[3] = compound: CC1=NN=C(O1)C2=NN=C(C=C2)N3CCC(CC3)OC4=C(C=CC(=C4)F)Cl + Nc1nc2[nH]cc(CCc3ccc(C(=O)N[C@@H](CCC(=O)O)C(=O)O)cc3)c2c(=O)[nH]1 [Pemetrexed] (partner 0.2 µM)
Outline: as §1

[4] = compound: CC1=NN=C(O1)C2=NN=C(C=C2)N3CCC(CC3)OC4=C(C=CC(=C4)F)Cl + COc1cccc2cc(-c3nc([C@H]4CC[C@H](C(=O)O)CC4)n4ncnc(N)c34)[nH]c12 [OSI-027] (partner 0.5 µM)
Outline: as §1

Question: RERF-LC-KJ was tested. Which relative viability ([1]; first compound 0.253 µM) did it give?
Answer: 0.623

Question: And the relative viability ([1]; first compound 0.8 µM)?
Answer: 0.545

Question: And the relative viability ([1]; first compound 2.53 µM)?
Answer: 0.584

Question: And the relative viability ([1]; first compound 8 µM)?
Answer: 0.57

Question: What about the relative viability ([2]; first compound 0.02 µM) of the same cell line?
Answer: 0.851

Question: And the relative viability ([2]; first compound 0.06325 µM)?
Answer: 0.912

Question: And the relative viability ([2]; first compound 0.2 µM)?
Answer: 0.77

Question: What about the relative viability ([2]; first compound 0.6325 µM) of the same cell line?
Answer: 0.884

Question: And the relative viability ([2]; first compound 2 µM)?
Answer: 0.8

Question: And the relative viability ([3]; first compound 0.253 µM)?
Answer: 0.446

Question: And the relative viability ([3]; first compound 0.8 µM)?
Answer: 0.43

Question: What about the relative viability ([3]; first compound 2.53 µM) of the same cell line?
Answer: 0.438

Question: What about the relative viability ([3]; first compound 8 µM) of the same cell line?
Answer: 0.455

Question: And the relative viability ([4]; first compound 0.253 µM)?
Answer: 0.524

Question: What about the relative viability ([4]; first compound 0.8 µM) of the same cell line?
Answer: 0.531

Question: What about the relative viability ([4]; first compound 2.53 µM) of the same cell line?
Answer: 0.622

Question: What about the relative viability ([4]; first compound 8 µM) of the same cell line?
Answer: 0.479

Question: What does the source list for SK-LU-1?
Answer: relative viability ([1]; first compound 0.253 µM): 0.703; relative viability ([1]; first compound 0.8 µM): 0.749; relative viability ([1]; first compound 2.53 µM): 0.772; relative viability ([1]; first compound 8 µM): 0.807; relative viability ([2]; first compound 0.02 µM): 0.975; relative viability ([2]; first compound 0.06325 µM): 0.724; relative viability ([2]; first compound 0.2 µM): 0.662; relative viability ([2]; first compound 0.6325 µM): 0.792; relative viability ([2]; first compound 2 µM): 0.652; relative viability ([3]; first compound 0.253 µM): 1.03; relative viability ([3]; first compound 0.8 µM): 0.9; relative viability ([3]; first compound 2.53 µM): 0.867; relative viability ([3]; first compound 8 µM): 0.829; relative viability ([4]; first compound 0.253 µM): 0.3; relative viability ([4]; first compound 2.53 µM): 0.247; relative viability ([4]; first compound 8 µM): 0.199

Question: How did the relative viability ([1]; first compound 0.253 µM) turn out when SK-MES-1 was run?
Answer: 0.452

Question: And the relative viability ([1]; first compound 0.8 µM)?
Answer: 0.528

Question: What about the relative viability ([1]; first compound 2.53 µM) of the same cell line?
Answer: 0.445

Question: And the relative viability ([1]; first compound 8 µM)?
Answer: 0.518

Question: What about the relative viability ([2]; first compound 0.02 µM) of the same cell line?
Answer: 0.691

Question: And the relative viability ([2]; first compound 0.06325 µM)?
Answer: 0.889

Question: What about the relative viability ([2]; first compound 0.2 µM) of the same cell line?
Answer: 0.914

Question: What about the relative viability ([2]; first compound 0.6325 µM) of the same cell line?
Answer: 0.873

Question: And the relative viability ([2]; first compound 2 µM)?
Answer: 0.86

Question: And the relative viability ([3]; first compound 0.253 µM)?
Answer: 0.681

Question: And the relative viability ([3]; first compound 0.8 µM)?
Answer: 0.853

Question: And the relative viability ([3]; first compound 2.53 µM)?
Answer: 0.828

Question: And the relative viability ([3]; first compound 8 µM)?
Answer: 0.628

Question: And the relative viability ([4]; first compound 0.253 µM)?
Answer: 0.558

Question: And the relative viability ([4]; first compound 0.8 µM)?
Answer: 0.583

Question: And the relative viability ([4]; first compound 2.53 µM)?
Answer: 0.601

Question: What about the relative viability ([4]; first compound 8 µM) of the same cell line?
Answer: 0.487

Question: What does the source list for SW 1573?
Answer: relative viability ([1]; first compound 0.253 µM): 1.03; relative viability ([1]; first compound 0.8 µM): 1.09; relative viability ([1]; first compound 2.53 µM): 0.877; relative viability ([1]; first compound 8 µM): 0.932; relative viability ([2]; first compound 0.02 µM): 0.877; relative viability ([2]; first compound 0.06325 µM): 0.906; relative viability ([2]; first compound 0.2 µM): 0.924; relative viability ([2]; first compound 0.6325 µM): 0.825; relative viability ([2]; first compound 2 µM): 0.974; relative viability ([3]; first compound 0.253 µM): 0.819; relative viability ([3]; first compound 0.8 µM): 0.881; relative viability ([3]; first compound 2.53 µM): 0.828; relative viability ([3]; first compound 8 µM): 0.534; relative viability ([4]; first compound 0.253 µM): 0.643; relative viability ([4]; first compound 0.8 µM): 0.52; relative viability ([4]; first compound 2.53 µM): 0.562; relative viability ([4]; first compound 8 µM): 0.4
